Experimental findings from US11826373B2, “Methods for treatment of diseases” (Galera Labs, LLC, priority 2011, dated 2023) are described below.

The test system of series [1] is beagle dogs. As to the kind of experiment: GC4403 7-day IV toxicity in dog. The class given is in vivo. The note with it: 7 days. As to the method:
GC4403 in 26 mM sodium bicarbonate/0.9% sodium chloride was administered to beagle dogs (4/sex/group) IV (slow bolus injection over at least 1 minute) at dosages of 0, 1, 3 or 6 mg/kg/day for 7 days. There was no mortality during the study. […] At 6 mg/kg/day, animals also had tremors, abnormal stance and gait, inability to stand and prostration. Generally, clinical signs had resolved by two hours after dose administration. As the study progressed, some clinical signs (tremors, inability to stand, prostration and abnormal stance and gait) lessened slightly. […] The lower white cell counts correlated with lower absolute neutrophil and eosinophil counts at ≥3 mg/kg/day, which were, however, within the normal historical values for these parameters. At necropsy, there were no changes in organ weights compared to control animals nor were there macroscopic or microscopic changes in any organs with the exception of fibrosis in the heart of one male at 3 mg/kg/day and 1 male at 6 mg/kg/day.

A further series deals with SD rats. The series is described as follows: Rat GC4403 7-day intravenous toxicity. The class given is in vivo. As to the method:
GC4403 was Studied in a GLP toxicology study in which it was administered in 26 mM sodium bicarbonate/0.9% sodium chloride to SD rats (10/sex/group) IV (slow bolus 1 mL/kg/minute) at dosages of 0, 1, 3 or 10 mg/kg/day for 7 days (On Day 1, 1/10 male rats receiving 10 mg/kg/day died). The dosage was therefore decreased to 8 mg/kg/day on Day 2 for all surviving animals for the remainder of the study, and the original 10 mg/kg/day group was re-designated as the 8 mg/kg/day group. On Day 4, two females from the 8 mg/kg/day group also died. Clinical signs immediately following dose administration of 8 mg/kg/day were twitching, labored breathing, body drop and prostration. At the scheduled 1-hour observation time, animals appeared normal. Males and females given 8 mg/kg/day had decreased body weight gains, which were accompanied by decreased food consumption in the males only. […] Surviving rats were sacrificed, and all rats sacrificed or found dead were necropsied.

The nature of series [2]: GC4403 28-day IV toxicity in dog. The series is classed as in vivo. The note with it: both sexes, dog, in vivo; beagle dogs, IV, 28 consecutive days; read-out: no observed adverse effect level (NOAEL). As to the method: (§1) GC4403 was evaluated in a Good Laboratory Practice (GLP)-regulated study in beagle dogs. GC4403 was administered intravenously (IV) via slow bolus dose, once daily, to beagle dogs for 28 consecutive days. GC4403 was administered IV into the cephalic vein (0.5 mL/kg) to 3 groups of dogs (4 animals/sex/group) at dosages of 1.0, 3.0 and 6.0 mg/kg with a fourth group receiving vehicle (26 mM sodium bicarbonate in normal saline). […] There were no test article-related differences in group mean hematology, coagulation, or clinical chemistry parameters or urinalysis parameters after 28 days of treatment in any dosing group. At necropsy on day 29, there were neither test-article related gross macroscopic findings nor test-article-related differences in organ weight. No test-article-related histopathological lesions were present. There were no test-article-related electrocardiology (ECG) effects when evaluated on day 27.

The subject of series [3] is beagle dogs. As to the kind of experiment: GC4403 28-day IV toxicity in dog. The series is classed as in vivo. The note with it: 28 days. As to the method:
as §1

For a further series, the system named is Rats. The series is described as follows: Rat GC4419 7-day IV study. The series is classed as in vivo. As to the method: A GLP toxicity study with GC4419 in bicarbonate buffer was performed. Rats (5/sex/group) were administered GC4419 as a 15 minute IV injection (4 mL/kg) at 0, 5, 10 or 15 mg/kg for 7 consecutive days. The control group received bicarbonate buffer. Evaluations for compound-related effects were based on clinical observations, body weight and food consumption. There were no deaths during the study and there were no signs of significant compound effects at any dosage.

The next series deals with healthy subjects. The series is described as follows: Human Phase 1 single rising dose safety and tolerability of GC4419. The series is classed as in vivo. As to the method: (§2) A human clinical trial entitled, “A Double-Blind, Placebo-Controlled, Single Rising Dose Study to Evaluate the Safety and Tolerability and Determine the Pharmacokinetics of M40419 Administered as a I5-Minute Intravenous Infusion in Healthy Subjects,” was conducted on 54 subjects. This was a single center, randomized, placebo-controlled, sequential panel, single dose safety, tolerability, and pharmacokinetic study of GC4419 administered as a 75-mL IV infusion over 15 minutes in escalating doses of 10 mg, 15 mg, 22 mg, 33 mg, 50 mg, 75 mg, and 112 mg. The study consisted of two phases: the first phase was a dose escalation with six subjects (four active and two placebo) in each cohort to determine a Maximum Tolerated Dose (MTD); the second phase was a repeat of the MTD dose in 12 subjects (eight active drug and four placebo) to confirm the MTD or safety of highest dose tested. The study population was comprised of 54 healthy male and female subjects (36 males, 18 females) between the ages of 18 and 50 years considered eligible on the basis of inclusion and exclusion criteria. There were four active and two placebo subjects for each dose level in the escalating dose phase of the study, and eight active and four placebo subjects for the confirmation of MTD phase.
All subjects receiving a dose of study medication were evaluated for safety. The safety of the drug product was assessed based on: treatment-emergent adverse events (TEAEs), clinical laboratory evaluations, vital signs, 12-lead electrocardiograms (ECGs) and standard ECG parameters including PR, QRS, QT, and QTc intervals.

A short description of series [4]: Human Phase 1 pharmacokinetics of GC4419. The note with it: both sexes, in vivo. How it is done:
as §2
As part of the conduct of the Phase 1a clinical studies for GC4403 and GC4419 described in the Examples herein, plasma samples were collected for measuring the concentration of parent compounds (GC4403 and GC4419) after intravenous infusion. Table 3 illustrates the pharmacokinetic parameter, area under the curve (AUC), representing the total exposure of the subject to the drugs over time.

[5] abbreviates: single intravenous infusion over 15 minutes, healthy subjects.

As to `[Cl][Mn-5]1234([Cl])[n+]5c6cccc5C[NH+]1[C@@H]1CCCC[C@H]1[NH+]2CC[NH+]3[C@@H]1CCCC[C@H]1[NH+]4C6` (stereo partly drawn) [GC4403], the mortality result was “no mortality” in the series with beagle dogs [1] (dog, 1, 3 or 6 mg/kg/day IV); “No animals died” in the series on beagle dogs [3] (beagle dogs, 1.0, 3.0 and 6.0 mg/kg IV). Moreover, the “no observed toxic event level (NOTEL)” value in the series on beagle dogs [1] (dog, IV slow bolus injection) is given as 3 mg/kg/day; in the series with SD rats (rat, IV slow bolus injection, 7 days) it was 3 mg/kg/day. In addition, the “dosage at which clinical signs immediately after dose administration were observed” value with beagle dogs [1] (dog, IV slow bolus, scratching, facial swelling, raised red areas, partial closing of the eyes) is not below 3 mg/kg/day. The “mortality, females died” value with SD rats (8 mg/kg/day group, Day 4) was “two”. In addition, the “mortality, male rats died” value in the series with SD rats (10 mg/kg/day, Day 1) is listed as 1/10. Further, the NOAEL at 28 days in series [2] turned out to be 1 mg/kg/day. For the same molecule, in the series with beagle dogs [3] (both, beagle, dog, in vivo, iv), the “no observed toxic effect level (NOTEL)” value worked out at 3.0 mg/kg/day.
With `[Cl][Mn-5]1234([Cl])[n+]5c6cccc5C[NH+]1[C@H]1CCCC[C@@H]1[NH+]2CC[NH+]3[C@H]1CCCC[C@@H]1[NH+]4C6` (stereo partly drawn) [GC4419], the “decrease in body weight” value in the series on Rats (males given 15 mg/kg/day, by Day 8) is on record as “approximately 10%”. The mortality result with Rats (rats, 5, 10 or 15 mg/kg, 7 days) is reported as “no deaths”. This molecule also had an NOTEL in the series with Rats (rats, males and females, 15 minute IV injection, 7 consecutive days) of 15 mg/kg. For the same molecule, the “subjects who experienced at least one TEAE” value in the series on healthy subjects (30 of 36 subjects who received trial material, 10-112 mg) turned out to be 83.3%. In addition, the “tolerability of single doses up to 112 mg” value with healthy subjects (healthy subjects) is reported as “no serious adverse events”. Moreover, the “tolerability of single intravenous doses from 10 mg to 50 mg” value in the series on healthy subjects (healthy subjects) was “safe and well tolerated with no adverse events”. The “MTD initially defined in the dose escalation phase” value with healthy subjects (setting [5]) is recorded as 75 mg. Further, in the series on healthy subjects (setting [5]), the “maximum tolerated dose (MTD), final” value was found to be 50 mg. In addition, the total exposure AUC(0-inf) was found to be 741 ng·h/mL in series [4] (10 mg IV over 15 minutes); 1300 ng·h/mL in series [4] (15 mg IV over 15 minutes); 2000 ng·h/mL in series [4] (22 mg IV over 15 minutes); 3190 ng·h/mL in series [4] (33 mg IV over 15 minutes); 4560 ng·h/mL in series [4] (50 mg IV over 15 minutes); 6490 ng·h/mL in series [4] (75 mg IV over 15 minutes). In series [4] (112 mg IV over 15 minutes), this molecule returned an AUC(0-inf) of 10400 ng·h/mL.

One may read the NOAEL as the highest tested level that showed no adverse finding. As a reminder, the AUC(0-inf) is the area under the concentration-time curve extrapolated to infinity. Low readings indicate low exposure, high ones high exposure.
